The values below come from patent US20140286868A1, “IMMORTALIZED HUMAN PROSTATE CELL LINES” (Tuskegee University, priority 2011, published 2014).

For one assay, the system named is RC-77T/E cells. As to the kind of experiment: Androgen sensitivity: cell proliferation by MTT assay, RC-77T/E cells. The assay is classed as cell-based, human. To be noted: 4 days. How it is done:
(§1) Since androgen receptor expression was observed both cell lines, an experiment was conducted to determine the effects of androgen stimulation on the growth of RC-77N/E and RC-77T/E cells. Cells were grown in serum-free K-SFM at different doses of Methyltrienolone (R1881), a synthetic androgen, for 4 days.
(§2) In this experiment, 2×10^4 cells per well of each line were grown in serum-free K-SFM with 0.1% BSA in the presence of 0, 0.1, 1.0, 10.0 and 100.0 nM for 4 days. K-SFM was supplemented with or without Methyltrienolone (R1881) (obtained from Perkin-Elmer, Waltham, Mass.), at concentrations of 0.1, 1, 10 and 100 nM, respectively. Cell proliferation was determined by MTT assay according to a procedure as generally described by Wells et al. (“Luteinizing hormone-releasing hormone agonist limits DU-145 prostate cancer growth by attenuating epidermal growth factor receptor signaling.” Clin. Cancer Res. 8: 1251-1257, 2002.).
(§3) The results from this experiment are illustrated in the chart of FIG. 4, with percent growth being determined by the number of cell counts being expressed as the mean value of triplicate observation. […] Further, the RC-77T/E cells were found responsive to 0.1 nM R1881, while RC-77N/E cells were only responsive at the higher dosage of 1.0 nM.

A further assay deals with RC-77N/E cells. As to the kind of experiment: Androgen sensitivity: cell proliferation by MTT assay, RC-77N/E cells. Particulars: 4 days. The assay is classed as cell-based, human. The method, then:
as §1, §2, §3
On the technique in general: Formazan colour is commonly taken as a measure of viable cells.

Setting [1] is: 1.0 nM R1881, serum-free K-SFM with 0.1% BSA.
Setting [2] is: 100.0 nM R1881, serum-free K-SFM with 0.1% BSA.

For `C[C@]1(O)CC[C@H]2[C@@H]3CCC4=CC(=O)CCC4=C3C=C[C@@]21C` [R1881, Methyltrienolone], in the assay with RC-77T/E cells (0.1 nM R1881, serum-free K-SFM with 0.1% BSA), the “cell growth response to androgen stimulation” value is “responsive”. The cell growth entry in the assay on RC-77T/E cells (setting [1]) is listed as “Significant stimulation in cell growth”; in the assay with RC-77T/E cells (setting [2]), “inhibition of cell growth”; in the assay with RC-77N/E cells (setting [1]), “Significant stimulation in cell growth”; with RC-77N/E cells (setting [2]), “inhibition of cell growth”.
